In experiment [1] the test system is Cap-dependent (eIF4A dependant) translation. Nature of the experiment: CrPV assay, cap-dependent translation (firefly luciferase). It counts as cell-based. Particulars: 20 μM, 3 hours treatment, FIG. 12. From the text: FIG. 12—CrPV assay—Natural molecule targets eIF4A.
By using a well characterised luciferase based reporter assay it was further determined that this class of molecule functions as a protein synthesis inhibitor via targeting the helicase eIF4A.

Experiment [2] concerns A549 lung carcinoma cells. Nature of the experiment: Cell proliferation, A549 (WST-1 / MTT). It counts as cell-based. Here is the method:
Cisplatin™ resistant A549 lung cancer cells were sensitised to treatment with a compound of Formula II in combination with 1 μM Cisplatin™—a complete kill is achieved at higher doses of a compound of Formula II.
Cells were treated with a range of doses of active for either 48 or 96 hrs. Each data point is representaive of at least 4 biological repetitions.
Cells were treated with either 2 μM Cisplatin™ alone, c. 1 μg active alone or c. 1 μg active in combination with 2 μM Cisplatin™. A WST-1 cell proliferation assay was performed 96 hrs after treatment. Experiment represents 4 independent biological repetitions.
A WST-1 cell proliferation assay was performed 72 hrs after treatment. Experiment represents 4 independent biological repetitions.
Cells were treated with either 2 μM or 10 μM Cisplatin™ alone, or 10 μg synthetic molecule Formula II in combination with 2 μM Cisplatin™. A WST-1 cell proliferation assay was performed 72 hrs after treatment. Experiment represents 4 independent biological repetitions. A 5-fold increase in the efficacy of Cisplatin™ is observed when treated in combination with the synthetic Formula II.
Cells were treated with either 2 μM, 5 μM or 10 μM Cisplatin™ alone, 50 μg synthetic acetyl derivative molecule or 30 μg in combination with 2 μM Cisplatin™. A WST-1 cell proliferation assay was performed 72 hrs after treatment. Experiment represents four independent biological repetitions. No effect was detected after treatment with 50 μg synthetic acetyl derivative, however an 8-fold increase in the efficacy of Cisplatin™ is observed when treated in combination with 30 μg synthetic acetyl derivative and […] Cisplatin™.
FIG. 11—Natural molecule plus cisplatin compared to Hippuristanol plus cisplatin. […] The ratio between anti-proliferative activity to chemo sensitizing activity is also equivalent.
FIG. 13—Dose curves of compounds 46, 99 and 123. […] Cells were treated with a range of doses of active for 96 hrs. Each data point is representative of at least 4 biological repetitions and error=s.e.m).
FIG. 14—Cisplatin™ combination experiments—Compounds 46, 99 and 123. […] Cells were treated with a range of doses of active in combination with a range of doses of Cisplatin™ for 96 hrs. Each data point is representative of at least 4 biological repetitions and error=s.e.m).
(§1) Prior to treatment cells were cultured to an appropriate confluency in 96 well tissue culture plates (Fisher). Cells remained either supplemented with fresh media or treated with fresh media containing active or an equivalent volume of DMSO (vehicle control). Where used, Cisplatin™ was diluted to a stock concentration in Dimethylformamide (DMF), then handled as per the manufacturer's instructions. To determine relative cell viability, reagents WST-1 (Roche) or MTT (Sigma) were used as per the manufacturer's instructions and absorbance at 450 nm measured using a Victor plate reader (Perkin Elmer).
A general note: Formazan colour is commonly taken as a measure of viable cells.

For experiment [3], the system named is breast cancer cells MCF7. Nature of the experiment: Cell proliferation, MCF7. It counts as cell-based. The following applies: 96 hours, Formula II only. The protocol: Growth of MCF7 cell lines were slowed by the treatment with a compound of Formula II. Experiment represents 6 biological repetitions, Error=S.E.M.
as §1

Experiment [4] has as its system epidermal growth factor receptor (EGFR) 5′UTR. Nature of the experiment: 5′UTR firefly luciferase reporter assay, EGFR. The experiment is classed as cell-based, human. Particulars: Neuroblastoma cells; FIG. 3d. Here is the method:
(§2) The 5′UTRs of genes which negatively associate with the progression of Alzheimer's disease—amyloid precursor protein (APP) and beta secretases (BACE) are all inhibited by treatment with a compound of Formula II, whereas the equivalent reporter levels of housekeeping genes actin and thioredoxin (TXN) are not inhibited. […] Neuroblastoma cells were transfected 24 hours prior to treatment with a compound of Formula II. After treatment, cells were prepared as described in the materials and methods. Each experiment represents between 6 and 8 biological repetitions.
After treatment with the compound of Formula II the levels of translation of a reporter construct containing the 5′UTR of amyloid precursor protein, which is processed into toxic amyloid the major constituent of amyloid plaques in Alzheimer's disease, is inhibited relative to equivalent control treatments. […]
(§3) Cells were transfected using FuGene 6 (Roche) following the manufacturer's instructions. The activities of firefly and renilla luciferase in lysates prepared from transfected cells were measured using a commercially available Luciferase reporter assay system (Promega) and light emission was measured over a 10 sec interval using a TECAN luminometer. […]
On the technique in general: A reporter such as luciferase makes a cellular process visible.

Experiment [5] relates to NLGN2 5′UTR. Nature of the experiment: NLGN translation reporter assay, neuroligin 2. The following applies: equivalent treatment; FIG. 5 and FIG. 10. The experiment is classed as cell-based, human. The protocol:
The mechanism of action and level of activity of Formula II are consistent with and comparative to a proven translational inhibitor extracted from a rare coral species (Hippuristanol—a proven inhibitor of eIf4A). In this experiment 1 μM of Hippuristanol and 1.3 μM of Formula I was used
FIG. 10—Compound 46, NLGN Translation reporter assay.
Treatment with the compound of Formula II (and compound 46) (FIG. 5 and FIG. 10) selectively decrease the firefly luciferase signal from a reporter construct containing the NLGN1 5′UTR upstream of a firefly luciferase gene. The translation of luciferase reporters downstream of the NLGN1 5′UTR has been proven to be dependent on the activity of the translation initiation complex eIF4F (Gkogkas et al Nature 2013, 493:371-7)—a complex containing the helicase eIF4A. […]
as §3

The test system of experiment [6] is actin 5′UTR. Nature of the experiment: 5′UTR firefly luciferase reporter assay, actin. Particulars: Neuroblastoma cells; FIG. 3d. The experiment is classed as cell-based, human. The protocol: as §2
Experiments conducted using Firefly luciferase reporter plasmids containing the 5′ untranslated regions (UTRs) of the genes amyloid precursor protein (APP), thioredoxin (TXN) were conducted with reagents and materials described by Bottley et al, 2010. Experiments conducted using Firefly luciferase reporter plasmids containing the 5′ UTRs of the genes EGFR, BACE1 and Actin were conducted with reagents and materials described by Webb, 2012 (http://etheses.nottingham.ac.uk/2724/). […]
as §3

Entries after “also recorded” stand apart in the source; their conditions may differ.

For the molecule `CC/C=C\C/C=C\C/C=C\CCCCCCCC(=O)OC[C@H](COC1OC(CO)C(O)C(O)C1O)OC(=O)CCCCCCC/C=C\C/C=C\C/C=C\CC` (stereo partly drawn) [Formula II, 1,2-dioctadecatienyl-3-O-β-D-galactosyl-sn-glycerol], the “cap dependant translation (firefly luciferase signal)” value in experiment [1] was “selectively reduces the translation of the firefly luciferase gene”; in experiment [1] (listed as Synthetic version of the natural molecule), “inhibited”. Besides, the “increase in the efficacy of Cisplatin” value in experiment [2] (10 μg synthetic Formula II plus 2 μM Cisplatin, WST-1, 72 hrs, FIG. 9b) was 5 fold. Moreover, the “kill of A549 cells in combination with Cisplatin” value in experiment [2] (96 hours, plus 1 μM Cisplatin, higher doses of Formula II) is on record as “complete kill”. The “anti-proliferative activity on A549 cells” value in experiment [2] (alone, FIG. 11) is reported as “anti-proliferative”. Besides, the “efficacy of Cisplatin on A549 cells in combination” value in experiment [2] (c. 1 μg active plus 2 μM Cisplatin, WST-1, 96 hrs, FIG. 7) is recorded as “significant increase in the efficacy”. Also, the “sensitizing effect to Cisplatin on A549 cells” value in experiment [2] (in combination with Cisplatin (2 μM), FIG. 11) was “equivalent to hippuristanol”. Further, the “growth of A549 cells” value in experiment [2] (range of doses, 48 or 96 hrs, WST-1 and MTT, compound purified from natural source, FIG. 6) was “inhibits the growth”. Further, in experiment [2] (synthetic Formula II, WST-1, 72 hrs, FIG. 9a), the “A549 cell growth, synthetic molecule” value is given as “inhibited by Formula II in a dose dependent manner”. The “growth of MCF7 cells” value in experiment [3] is on record as “slowed”. Also, the “firefly luciferase reporter activity, EGFR 5′UTR” value in experiment [4] is recorded as “selectively inhibited; also recorded: significant inhibition (p=0.005)”. The “signal of NLGN2 5′UTR firefly luciferase reporter” value in experiment [5] is on record as “little effect”. Also, the “firefly luciferase reporter levels, actin 5′UTR” value in experiment [6] is reported as “not inhibited”.

The values are drawn from patent US11248016B2, “Glycolipids and pharmaceutical compositions thereof for use in therapy” (THE UNIVERSITY OF NOTTINGHAM, priority 2014, dated 2022).
